Assay [1] deals with mouse model of DOX-induced acute cardiac toxicity. The assay can be described thus: Acute high-dose DOX-induced cardiotoxicity, cTnI ELISA, wild type mice. It counts as in vivo. Also noted: In vivo DOX experiment in female wild type mice with EF-1 (cTnI) / In vivo DOX experiment in fmale wild type mice with EF-1 (cTnI): unit not given here. Here is the method: DOX (20 mg/kg; Pfizer, 4222) was administered intraperitoneally once on day 4 to induce cardiotoxicity. On day 7, mice were euthanized, serum samples were collected via the retrobulbar sinus and hearts were excised.
Serum samples were centrifuged for 15 min (1000 × g) at 4 °C and analyzed using a mouse cardiac Troponin I Type 3 ELISA kit (Novus Biologicals, NBP3–00456), according to the manufacturer’s instructions. Briefly, a 96-well microplate was coated with an anti-mouse TNNI3/cTnI primary antibody (Capture Antibody Solution). Standard solution or samples (100 μL) were added to the plate and incubated for 90 min at 37 °C. A biotinylated anti-mouse TNNI3/cTnI detection antibody was added, and the plate was incubated for 1 h at 37 °C followed by 3 washes with Wash Buffer. An avidin–horseradish peroxidase conjugate (Detection Antibody Solution) was then added, and the plate was incubated once more for 30 min at 37 °C. After 3 washes with Wash Buffer, Substrate Reagent was added. Following incubation for 15 min at 37 °C, the enzymatic reaction was terminated by the addition of Stop Solution. Sample optical densities at 450 nm were converted to […] concentrations of mouse TNNI3/cTnI using a calibration curve.
On the technique in general: An ELISA detects its analyte on a solid surface through an enzyme-linked reagent.

The test system of assay [2] is HCFs. Description: Bulk RNA sequencing and GSEA of human cardiac fibroblasts. It counts as cell-based. The note with it: EF-1 32 µM, 16 h, log2-fold change >0, P adj <0.05. As to the method:
iAMs were seeded at a density of 6 ×10^6 cells/mL in differentiation medium in 75-cm^2 cell culture flasks (Greiner Bio-One, 658175) and incubated for 9 days (d0 = day of seeding). HCF were seeded at a density of 3 × 10^6 cells/mL in fibroblast medium in 75-cm^2 cell culture flasks. […] Next, cells were lysed using 350 µL buffer RLT (Qiagen) supplemented with β-mercaptoethanol (100:1; Merck, 444203). Total RNA was isolated using the RNeasy Micro Kit (Qiagen, 74104) according to the manufacturer’s protocol, with an extra step of DNase digestion. The concentration and quality of RNA were determined using a Qubit fluorometer (Thermo Fisher Scientific) and 2100 Agilent BioAnalyzer (Agilent Technologies), respectively. Samples with an RNA integrity number >7 were used for library preparation. Sequencing libraries were prepared by Genewiz/Azenta (Leipzig) on cDNA prepared from polyadenylated mRNA. Libraries were sequenced using a NovaSeq 6000 (Illumina) with a read length of 2 ×150 bp.
Gene expression was quantified at the transcript level using Salmon (v1.10.0)[60], with the validatMappings and -gcBias parameters switched on, to the Rnor_6.0 or GRCh38 transcriptome. […] Functional enrichment of DEGs was determined using a hypergeometric test against the Gene Ontology database by using the ClueGO (v2.5.7)[64] module of Cytoscape (v3.9.1)[65] with Benjamini–Hochberg adjusted (FDR) P < 0.05. […]

Assay [3] has as its system iAMs. The assay can be described thus: TUNEL assay in H2O2-treated iAMs. It is filed as cell-based, rat. Also noted: In vitro TUNEL assay: unit not given here. As to the method:
To assess apoptosis, a TUNEL assay was performed using the In Situ Cell Death Detection Kit, Fluorescein (Merck, 11684795910) according to the manufacturer’s instructions. After the 4-h incubation, the cells were fixed with 4% paraformaldehyde for 15 min at room temperature, followed by permeabilization with 0.1% Triton X-100 in 0.1% sodium citrate for 2 min on ice. Cells were then incubated with the TUNEL reaction mixture in a humidified chamber at 37 °C for 1 h in the dark. After washing with PBS, the samples were analyzed using fluorescence microscopy to detect apoptotic cells. […]
1 on TUNEL staining (red).
positive cells (n=7 biological replicates in Veh group, n=9 biological replicates for H2O2/Veh group, n=11 […]

Where “and” joins values, the source holds several entries; their conditions need not be identical. Equal entries are not always repeated.

As for `O=C(NC1CC1)C(Sc1nc2ccccc2c(=O)n1C1CCCC1)c1ccccc1` (stereo not shown) [EF-1], the “In vivo DOX experiment in female wild type mice with EF-1 (cTnI)” value in assay [1] (female wild type mice, DOX/EF-1 group, individual animals, Fig. 6b) was 8.09 and 3.543 and 6.879 and 1.657 and 7.427 and 2.8057 and 6.224 and 3.861. In addition, the “effect on DOX-induced increase in circulating cTnI plasma levels (in words)” value in assay [1] (female wild type mice, EF-1 2 mg/kg, 7 days, DOX 20 mg/kg IP day 4) is recorded as “significantly prevented the DOX-induced increase in circulating cTnI plasma levels”. Moreover, the “In vivo DOX experiment in fmale wild type mice with EF-1 (cTnI)” value in assay [1] (fmale wild type mice, DOX/EF-1 group, individual animals, Fig. 6c) is 273.659 and 148.181 and 198.844 and 244.235 and 228.218 and 232.739 and 226.672 and 236.453 and 259.198. Besides, in assay [2], the “number of significantly downregulated genes compared to Veh” value is given as 507 and the “number of significantly upregulated genes compared to Veh” value came to 336. Also, the “number of TUNEL-positive (apoptotic) cells (in words)” value in assay [3] (100 µM H2O2) is reported as “significantly reduced this number”. In assay [3] (H2O2/EF-1, individual replicates), the “In vitro TUNEL assay” value is 23.25 and 37.594 and 36.981 and 17.145 and 24.708 and 40.03 and 14.87 and 23.901 and 20.679 and 24.2124 and 24.656.

These data come from publication PMC11724075, “Small-molecule-induced ERBB4 activation to treat heart failure” (Nature Communications, 2025).
